Series [1] deals with STC-1 cells. The settings on record: exposure of STC-1 cells (Abella et al., 1994); cited from earlier work.
The subject of series [2] is patients having non-insulin dependent diabetes (NIDDM). As to the kind of experiment: Overnight continuous subcutaneous infusion, blood glucose in NIDDM patients (Example 1). The settings on record: five NIDDM patients; subcutaneous infusion 1.2 pmol/kg/hr for ten hours during the night.
The test system of series [3] is NIDDM patients. The experiment in a line: Infusion for three hours at each meal during the day, blood glucose in NIDDM patients (Example 2). The conditions noted are these: five NIDDM patients.

For “12-O-tetradecanoylphobol-13-acetate [TPA]”, the “release of GLP-1” value in series [1] is “significant increases”.

With `CC[C@H](C)[C@H](NC(=O)[C@H](Cc1ccccc1)NC(=O)[C@H](CCC(=O)O)NC(=O)[C@H](CCCCN)NC(=O)[C@H](C)NC(=O)[C@H](C)NC(=O)[C@H](CCC(N)=O)NC(=O)CNC(=O)[C@H](CCC(=O)O)NC(=O)[C@H](CC(C)C)NC(=O)[C@H](Cc1ccc(O)cc1)NC(=O)[C@H](CO)NC(=O)[C@H](CO)NC(=O)[C@@H](NC(=O)[C@H](CC(=O)O)NC(=O)[C@H](CO)NC(=O)[C@@H](NC(=O)[C@H](Cc1ccccc1)NC(=O)[C@@H](NC(=O)CNC(=O)[C@H](CCC(=O)O)NC(=O)[C@H](C)NC(=O)[C@@H](N)Cc1c[nH]cn1)[C@@H](C)O)[C@@H](C)O)C(C)C)C(=O)N[C@@H](C)C(=O)N[C@@H](Cc1c[nH]c2ccccc12)C(=O)N[C@@H](CC(C)C)C(=O)N[C@H](C(=O)N[C@@H](CCCCN)C(=O)NCC(=O)N[C@@H](CCCNC(=N)N)C(N)=O)C(C)C` [GLP-1(7-36) amide], in series [2], the hypoglycemia entry is “without inducing hypoglycemia in any of the patients”. In addition, in series [3], the untoward side effects entry is given as “No untoward side effects”.

These data come from EP1652531A1, “Use of GLP-1 or Analogues in Treatment of Stroke” (Eli Lilly & Company, priority 1998, dated 2006).
